Patent publication US4018801A, “Substituted oxirane compounds” (The Dow Chemical Company, priority 1975, dated 1977)

Key:
Barnyard Grass = assay: Pre-emergent control of seed germination, soil drench; format: in vivo; conditions: Barnyard Grass, about 2 weeks
Description: (§1) Four parts by weight of the compound, 0.08 part of sorbitan trioleate (Span 85), and 0.02 part of a sorbitan monooleate polyoxyethylene derivative (Tween 80) are dipersed in 40 milliliters of acetone to produce a concentrate composition in the form of a water-dispersible liquid containing the predetermined oxirane compound as the sole active agent.
(§2) A portion of each of these concentrate compositions were separately dispersed in portions of water to provide aqueous compositions, containing 0.44 pound of the oxirane compound per 100 gallons of ultimate aqueous mixture.
(§3) The aqueous compositions were then employed for the treatment of seed beds of good agricultural soil which had been prepared and seeded with the seeds of various grass species and broadleaf plants. The grass species included white winter wheat, cultured rice, pigweeds, crabgrass, cheat grass, wild oats, Johnson grass, barnyard grass and yellow foxtail; and the broadleaf plants included corn. In the treating operations, a predetermined quantity of each of the compositions was applied to separate seedbeds as a soil drench at a rate of about 0.43 acre inch of aqueous composition per acre. The quantities were controlled to supply a substantial uniform dosage in a seedbed equivalent to 1.0, 2.0 and 5.0 pounds of the oxirane compound per acre. These dosages correspond, respectively, to a concentration, within the soil depth penetrated of about 1.6, 3.2 and 8.0 parts by weight of the oxirane compound per million parts by weight of soil. Other seedbeds were similarly seeded with the named plant species but were left untreated to serve as checks.
(§4) After about 2 weeks the seedbeds were examined to ascertain what control of the growth of seeds had been obtained.
(§5) were prepared as in Example 32 and similarly employed for the pre-emergencetreatment of various plant species.
(§6) An aqueous composition containing 2-(α,α,α -trifluoro-m-tolyl)-2-(2,2,2-trichloroethyl)oxirane was prepared as described in Example 32. The composition was then employed according to the procedures of Example 32 except that lower concentrations of the oxirane compound were employed in the composition.
(§7) The percent control of the various plant species at the employed dosage rate of the 2-(α,α,α-trifluoro-m-tolyl)- 2-(2,2,2-trichloroethyl) supplied by the composition is set forth in the following Table IV.

Pigweeds = assay: as above; format: in vivo; conditions: Pig Weeds, about 2 weeks
Description: as §1, §2, §3, §4, §5, §6, §7

Wild Oats = assay: as above; format: in vivo; conditions: Wild Oats, about 2 weeks
Description: as §1, §2, §3, §4, §5, §6, §7

Yellow Foxtail = assay: as above; format: in vivo; conditions: Yellow Foxtail, 1.0 pounds per surface acre, about 2 weeks
Description: as §1, §2, §3, §4, §5, §6, §7

Crabgrass = assay: as above; format: in vivo; conditions: Crabgrass, about 2 weeks
Description: as §1, §2, §3, §4, §5
(§8) Separate aqueous compositions containing the 2-(m-chlorophenyl)-2-(2,2,2-trichloroethyl)oxirane (Cmpd. A) and 2-(m-bromophenyl)-2-(2,2,2-trichloroethyl)oxirane (Cmpd. C) compounds of the present invention were prepared as in Example 32 for comparative per-emergence herbicide tests against noxious grass species with the known 2 -(p-chlorophenyl)-2-(2,2,2-trichloroethyl)oxirane (Cmpd. B) compound and 2-(p-bromophenyl)-2-(2,2,2-trichloroethyl)oxirane (Cmpd. D). The pre-emergence tests were conducted in Example 32 and the results of such tests are set forth below in Table III.
as §6, §7

Johnson Grass = assay: as above; format: in vivo; conditions: Johnson Grass, about 2 weeks
Description: as §1, §2, §3, §4, §5, §8, §6, §7

Cheat Grass = assay: as above; format: in vivo; conditions: 5.0 pounds per surface acre, about 2 weeks
Description: as §1, §2
as §3, with “These dosages correspond, respectively, to a concentration, within the soil depth penetrated of about 1.6, 3.2 and 8.0 parts by weight of the oxirane compound per million parts by weight of soil. Other seedbeds were similarly seeded with the named plant species but were left untreated to serve as checks.” left out

Cultured Rice = assay: as above; format: in vivo; conditions: about 2 weeks
Description: as §1, §2, §3, §4, §6, §7

White Winter Wheat = assay: as above; format: in vivo; conditions: about 2 weeks
Description: as §1, §2, §3, §4, §6, §7

Corn = assay: as above; format: in vivo; conditions: about 2 weeks
Description: as §1, §2, §3
After about 2 weeks the seedbeds were examined to ascertain what control of the growth of seeds had been obtained. […]
as §6, §7

Aspergillus terreus = assay: Control of fungal plants on nutrient agar; format: cell-based; conditions: 500 parts by weight per million
Experimental: (§9) Separate acetone compositions containing 100 and 500 parts, respectively, of each of 2-(p-nitrophenyl)- 2-(2,2,2-trichloroethyl)oxirane and 2-(m-nitrophenyl)- 2-(2,2,2-trichloroethyl)oxirane compounds per million parts by weight of ultimate mixture were prepared by dissolving a pre-determined amount of each of the above compounds in acetone to give the desired concentrations. The solutions were dispersed in melted nutrient agar to produce culture media for fungal plants. The agar solutions were poured into petri dishes and allowed to solidify. The solidified agar surface in each petri dish was inoculated with one species of a fungal plant; the plants employed being Staphylococcus aureus, Candida albicans, Trichophton mentagrophytes, Bacillus subtilis, Aspergillus terreus, Candida pelliculosa, Pullularia pullulans, Mycobacterium phlei, Cephaloascus fragans and Aerobacter aerogenes.
(§10) The inoculation was carried out by applying droplets of a solution containing the fungal plants to the agar surfaces. The inoculated petri dishes were then incubated for an appropriate period of time and under conditions conducive to the growth of the fungal plants involved.
(§11) After incubation, the petri dishes were examined to determine the degree of control of the fungal plants.

Bacillus subtilis = assay: Control of fungal plants on nutrient agar; format: cell-based; conditions: 500 parts by weight per million
Experimental: as §9, §10, §11

Candida albicans = assay: Control of fungal plants on nutrient agar; format: cell-based; conditions: 500 parts by weight per million
Experimental: as §9, §10, §11

Candida pelliculosa = assay: Control of fungal plants on nutrient agar; format: cell-based; conditions: 500 parts by weight per million
Experimental: as §9, §10, §11

Cephaloascus fragans = assay: Control of fungal plants on nutrient agar; format: cell-based; conditions: 500 parts by weight per million
Experimental: as §9, §10, §11

Mycobacterium phlei = assay: Control of fungal plants on nutrient agar; format: cell-based; conditions: 500 parts by weight per million
Experimental: as §9, §10, §11

Pullularia pullulans = assay: Control of fungal plants on nutrient agar; format: cell-based; conditions: 500 parts by weight per million
Experimental: as §9, §10, §11

Staphylococcus aureus = assay: Control of fungal plants on nutrient agar; format: cell-based; conditions: 500 parts by weight per million
Experimental: as §9, §10, §11

[1] = tested on: Trichophton mentagrophytes; assay: Control of fungal plants on nutrient agar; format: cell-based; conditions: 500 parts by weight per million
Experimental: as §9, §10, §11

For `O=[N+]([O-])c1cccc(C2(CC(Cl)(Cl)Cl)CO2)c1` (centres unmarked) [Example 2, 2-(m-nitrophenyl)-2-(2,2,2-trichloroethyl)oxirane], the “Percent Pre-Emergent Control of Seed Germination” value (“Percent Pre-Emergent Control” below) (Barnyard Grass; 1.0 pounds per surface acre) was 50%, the “Percent Pre-Emergent Control” value (Barnyard Grass; 2.0 pounds per surface acre) was 50% and the “Percent Pre-Emergent Control” value (Barnyard Grass; 5.0 pounds per surface acre) was 95%. For the same compound, the “Percent Pre-Emergent Control” value (Pigweeds; 1.0 pounds per surface acre) was 85%, the “Percent Pre-Emergent Control” value (Pigweeds; 2.0 pounds per surface acre) was 95% and the “Percent Pre-Emergent Control” value (Pigweeds; 5.0 pounds per surface acre) was 95%. For the same compound, the “Percent Pre-Emergent Control” value (Wild Oats; 1.0 pounds per surface acre) was 40%, the “Percent Pre-Emergent Control” value (Wild Oats; 2.0 pounds per surface acre) was 50% and the “Percent Pre-Emergent Control” value (Wild Oats; 5.0 pounds per surface acre) was 80%. For the same compound, the “Percent Pre-Emergent Control” value (Yellow Foxtail) was 100%, the “Percent Pre-Emergent Control” value (Crabgrass; 1.0 pounds per surface acre) was 95% and the “Percent Pre-Emergent Control” value (Crabgrass; 2.0 pounds per surface acre) was 100%. For the same compound, the “Percent Pre-Emergent Control” value (Crabgrass; 5.0 pounds per surface acre) was 100%, the “Percent Pre-Emergent Control” value (Johnson Grass; 1.0 pounds per surface acre) was 70% and the “Percent Pre-Emergent Control” value (Johnson Grass; 2.0 pounds per surface acre) was 85%. The “Percent Pre-Emergent Control” value (Johnson Grass; 5.0 pounds per surface acre) was 95%, the “Percent Pre-Emergent Control” value (Cheat Grass) was 100% and the “Percent Pre-Emergent Control” value (Cultured Rice; 1.0 pounds per surface acre) was 100%. For the same compound, the “Percent Pre-Emergent Control” value (Cultured Rice; 2.0 pounds per surface acre) was 95%, the “Percent Pre-Emergent Control” value (Cultured Rice; 5.0 pounds per surface acre) was 100% and the “Percent Pre-Emergent Control” value (White Winter Wheat; 1.0 pounds per surface acre) was 90%. For the same compound, the “Percent Pre-Emergent Control” value (White Winter Wheat; 2.0 pounds per surface acre) was 50%, the “Percent Pre-Emergent Control” value (White Winter Wheat; 5.0 pounds per surface acre) was 95% and the “Percent Pre-Emergent Control” value (Corn; 1.0 pounds per surface acre) was 100%. For the same compound, the “Percent Pre-Emergent Control” value (Corn; 2.0 pounds per surface acre) was 50%, the “Percent Pre-Emergent Control” value (Corn; 5.0 pounds per surface acre) was 0% and the “degree of control of the fungal plants” value (Aspergillus terreus) was “complete control and kill”. The “degree of control of the fungal plants” value (Bacillus subtilis) was “complete control and kill”, the “degree of control of the fungal plants” value (Candida albicans) was “complete control and kill” and the “degree of control of the fungal plants” value (Candida pelliculosa) was “complete control and kill”. The “degree of control of the fungal plants” value (Cephaloascus fragans) was “complete control and kill”, the “degree of control of the fungal plants” value (Mycobacterium phlei) was “complete control and kill” and the “degree of control of the fungal plants” value (Pullularia pullulans) was “complete control and kill”. For the same compound, the “degree of control of the fungal plants” value (Staphylococcus aureus) was “complete control and kill” and the “degree of control of the fungal plants” value [1] was “complete control and kill”.
